Test: molar heat capacity at constant pressure
Conditions: 101.33 kPa

CC(C)COC(C)(C)C [isobutyl tert-butyl ether]
molar heat capacity at constant pressure [J/K/mol]
Conditions	Crystal	Liquid
140.78 K	140.8	–
141.71 K	142	–
142.63 K	142.5	–
143.56 K	143.4	–
144.49 K	143.5	–
145.41 K	144.2	–
146.33 K	144.7	–
147.24 K	145.3	–
149.06 K	146.4	–
149.71 K	–	210
150 K	147.3	–
150.86 K	147.4	–
151.76 K	148.4	–
151.77 K	–	210.7
152.66 K	149	–
153.55 K	149.9	–
153.82 K	–	211.9
155.87 K	–	212.5
156.22 K	153.2	–
157.08 K	153.7	–
157.9 K	–	213.3
157.95 K	155.8	–
159.92 K	–	214
160 K	152.6	–
161.93 K	–	214.7
162.33 K	153.6	214.8
163.93 K	–	215.4
165.92 K	–	216.2
167.9 K	–	216.8
169.88 K	–	217.5
170 K	–	217.7
171.84 K	–	218.3
173.8 K	–	219.3
175.75 K	–	220.1
177.69 K	–	220.3
179.63 K	–	221.1
180 K	–	221.4
181.56 K	–	221.9
183.49 K	–	222.7
185.4 K	–	223.2
187.31 K	–	224.1
189.21 K	–	224.7
190 K	–	225
191.11 K	–	225.4
193 K	–	226
194.89 K	–	226.8
196.77 K	–	227.4
198.65 K	–	227.8
200 K	–	228.5
200.52 K	–	228.5
201.82 K	–	229.6
202.53 K	–	229.1
203.25 K	–	229.2
203.96 K	–	229.6
204.67 K	–	230.4
205.41 K	–	230.1
206.12 K	–	230.8
206.84 K	–	231.4
207.55 K	–	231.1
208.27 K	–	231.1
208.98 K	–	232.1
209.69 K	–	232
210 K	–	232.1
210.4 K	–	232.3
211.12 K	–	232.6
211.83 K	–	233
212.55 K	–	233.1
213.26 K	–	233.6
213.97 K	–	233.7
214.69 K	–	233.6
215.4 K	–	234.1
216.12 K	–	234.1
216.87 K	–	233.8
217.59 K	–	234.2
218.3 K	–	234.6
219.02 K	–	235.9
219.73 K	–	236
220 K	–	235.8
220.45 K	–	236.2
221.17 K	–	236
221.89 K	–	237
222.6 K	–	237
223.33 K	–	236.7
224.04 K	–	237.6
224.76 K	–	237.8
225.48 K	–	237.8
226.2 K	–	238
226.92 K	–	238.6
227.65 K	–	238.6
228.42 K	–	239.6
229.14 K	–	239.3
229.86 K	–	239.6
230 K	–	239.7
230.59 K	–	239.5
231.31 K	–	240.6
232.04 K	–	240.4
233.48 K	–	240.4
234.2 K	–	240.9
235.65 K	–	242
236.37 K	–	242.7
237.1 K	–	242.3
237.82 K	–	242.2
238.55 K	–	243.6
239.27 K	–	243.4
240 K	–	243.7
240.05 K	–	243.3
240.77 K	–	243.8
241.5 K	–	243.9
242.22 K	–	244.6
242.94 K	–	245.2
243.67 K	–	244.9
244.39 K	–	244.9
245.12 K	–	245.9
246.57 K	–	247
247.3 K	–	245.8
248.03 K	–	247
248.76 K	–	247.9
249.49 K	–	247.9
250 K	–	247.9
250.22 K	–	248.3
251.77 K	–	248
252.51 K	–	248.4
253.24 K	–	249
253.98 K	–	249.8
254.72 K	–	250.5
255.46 K	–	250.1
256.2 K	–	251
256.95 K	–	251.3
257.7 K	–	250.7
258.45 K	–	251.2
259.2 K	–	251.6
259.95 K	–	252.5
260 K	–	252.2
260.71 K	–	252.3
261.46 K	–	252.8
262.22 K	–	253.6
263.85 K	–	253.7
264.62 K	–	254.4
265.39 K	–	254.4
266.16 K	–	255.3
266.93 K	–	255.3
267.7 K	–	255.9
268.48 K	–	256.3
269.26 K	–	256.4
270 K	–	256.6
270.82 K	–	256.8
273.2 K	–	258
274 K	–	258.2
274.8 K	–	258.2
275.61 K	–	258.9
276.58 K	–	259.7
277.39 K	–	259.4
279.03 K	–	261.1
279.86 K	–	261.4
280 K	–	260.9
280.69 K	–	261
282.66 K	–	262.3
283.22 K	–	262.3
284.18 K	–	262.8
284.95 K	–	263.7
285.74 K	–	263.4
287.3 K	–	264
287.56 K	–	264.4
288.43 K	–	264.7
288.86 K	–	264.2
290 K	–	265.2
290.42 K	–	264.9
290.43 K	–	265.6
291.99 K	–	265.5
295.17 K	–	266.9
298.15 K	–	268.7
298.38 K	–	268.5
299.98 K	–	269.1
300 K	–	269.6
301.59 K	–	269.8
303.21 K	–	270.6
304.86 K	–	271.6
306.49 K	–	272.2
308.3 K	–	273.1
309.95 K	–	274
310 K	–	274
311.6 K	–	274.4
313.27 K	–	275.7
314.92 K	–	276.5
316.58 K	–	277.2
318.24 K	–	278.5
319.91 K	–	278.9
320 K	–	278.7
321.57 K	–	279.3
323.26 K	–	280.8
324.94 K	–	281.6
326.61 K	–	282.4
328.29 K	–	283.1
329.99 K	–	283.8
330 K	–	283.7
331.66 K	–	284.7
333.33 K	–	285.5
335.19 K	–	285.9
336.85 K	–	286.8
338.51 K	–	287.9
340 K	–	289
340.16 K	–	289
341.81 K	–	290
343.47 K	–	291.2
345.13 K	–	291.6
346.78 K	–	292.3
348.44 K	–	293
350 K	–	294.5
350.08 K	–	294.6
351.76 K	–	295.7
353.42 K	–	296.9

Source: the NIST ThermoML archive (doi:10.1016/j.jct.2005.02.003)
